“Also recorded” adds a separate entry of the source.
What was measured:
[1] = Cytotoxicity assay (MTS) on HEK293 cells; assay type: cell-based
Method: (§1) SH-SY5Y were grown in DMEM F12 (Sigma-Aldrich, Steinheim, Germany) supplemented with 15% (v/v) fetal bovine serum (Sigma-Aldrich, Steinheim, Germany), 1% (v/v) non-essential amino acids (NEAA, Sigma-Aldrich, Steinheim, Germany) and 1% (v/v) antibiotics solution Penicilin-Streptomycin (Sigma-Aldrich, Steinheim, Germany) while HEK293 were grown in EMEM (Sigma-Aldrich, Steinheim, Germany) supplemented with 10% (v/v) fetal bovine serum (Sigma-Aldrich, Steinheim, Germany), 1% (v/v) non-essential amino acids (NEAA, Sigma-Aldrich, Steinheim, Germany) and 1% (v/v) antibiotics solution Penicilin-Streptomycin (Sigma-Aldrich, Steinheim, Germany).
(§2) After cultivation, the cells were detached using 0.25% Trypsin/EDTA solution (Sigma-Aldrich, St. Louis, MO, USA), re-suspended and seeded at density of 20,000 cells/well in 96-well plates for experiments. The assay in 96-well was performed in 120 µL/well media volume. […] The procedure followed a previously described protocol and the manufacturer’s recommendations. […] Data was evaluated from at least two or three experiments (each in duplicate or triplicate) using IC50 nonlinear fit equation predefined in Prism6 software and presented as percentage of inhibition to control untreated cells.

[2] = Cytotoxicity assay (MTS) on SH-SY5Y cells; assay type: cell-based; conditions: human; SH-SY5Y cells, MTS assay, 6.25–800 µM, mean of at least three experiments with standard error
Method: as §1, §2

human BChE = human BChE (Homo sapiens, UniProt P06276); test: BChE reversible inhibition (Ellman's method, Hunter–Downs evaluation)
human AChE = human AChE (Homo sapiens, UniProt P22303); test: AChE reversible inhibition (Ellman's method, Hunter–Downs evaluation); assay type: biochemical; conditions: for Ki: human erythrocyte AChE, ATCh substrate, 0.1 M sodium phosphate buffer pH 7.4, at least three experiments, read-out: Ki ± SE AChE; for Ki (AChE)/Ki (BChE): selectivity ratio of measured Ki values
Text: The determined BChE phenotype was UU (usual).

[3] = tested on: phospho-ERK1/2 (Thr202/Tyr204); test: Intracellular signalling by Western blot: phospho-ERK1/2; assay type: cell-based, human; conditions: serum-starved HEK293 cells, 100 μM, 10 or 30 min, vs. Basal
Method: (§3) Intracellular signalling in the presence of the selected nicotinamide derivative was evaluated on HEK293 cells. To enhance attachment of HEK293 cells, 12-well plates were aseptically pre-coated with poly-lysin (50 µg/mL, 0.5 mL/well). After 1-h incubation, the solution was removed, surface rinsed with sterile demineralized water and allowed to dry for 1 h. HEK293 cells were seeded at a density of 300,000 cells/well in DMEM (1 g/L glucose, Gibco, Paisley, UK) supplemented with 10% (v/v) FBS (Gibco, Paisley, UK) and 1% (v/v) Pen-Strep (Gibco, Paisley, UK). The next day (after 20 h) the medium was replaced with DMEM without additions. The cells were serum-starved for 4 h. During the last 10 and 30 min, the cells were treated with 100 μM 3, 4, 5 or 8. Basal (control) samples were treated with vehicle (DMSO) for 30 min. At the end of the experiment, cells were washed with ice-cold PBS and lysed in Laemmli buffer (62.5 mM Tris-HCl (pH 6.8), 2% (w/v) sodium dodecyl sulfate (SDS), 10% (w/v) glycerol, 5% (v/v) 2-mercaptoethanol, 0.002% (w/v) bromophenol blue). The proteins were resolved with SDS-PAGE (precasted 4–12% polyacrylamide gels, Bio-Rad, CA, USA) and transferred to the PVDF membrane (Merck Millipore, Darmstadt, Germany) with wet electrotransfer using Criterion system and Bis-Tris gradient gels (Bio-rad, CA, USA). After the transfer, the membranes were stained with Ponceau S (0.1% (w/v) in 5% (v/v) acetic acid) to evaluate uniformity of sample loading and efficiency of transfer. The membranes were then blocked with 7.5% (w/v) dry milk in Tris-buffered saline with Tween 20 (TBST: 20 mM Tris, 150 mM NaCl, 0.02% (v/v) Tween 20, pH 7.5) for 1 h at room temperature. After blocking, the membranes were incubated with the primary antibody in the primary antibody buffer (20 mM Tris, 150 mM NaCl, pH 7.5, 0.1% (w/v) BSA and 0.1% (w/v) sodium azide) overnight at 4 °C and then with the secondary antibody-horseradish peroxidase conjugate (Bio-Rad, CA, USA) in TBST with 5% (w/v) dry milk for 1 h at room temperature. Finally, the membranes were incubated with enhanced chemiluminescence (ECL) reagent (Bio-Rad, CA, USA) and then immunolabelled proteins were visualized on X-ray films. Films were scanned with GS-800 Densitometer (Bio-Rad, CA, USA) and analysed with Quantity One 1-D 4.6.8 Analysis Software (Bio-Rad, CA, USA). […] Target proteins were detected using primary antibodies against phospho-Akt (Ser473, Cell Signaling #4060, Netherlands) phospho-ERK1/2 (Thr202/Tyr204, Cell Signaling #4370, Netherlands), phospho-S6 ribosomal protein (Ser235/236, Cell Signaling #2211, Netherlands), phospho-AMPK (Thr172, Cell Signaling #2535, Netherlands), phospho-acetyl-CoA carboxylase (Ser79, Cell Signaling #3661, Netherlands) and HIF-1α (Novus Biologicals NB100–449, CO, USA).

[4] = tested on: phospho-S6RP (Ser235/236); test: Intracellular signalling by Western blot: phospho-S6RP; assay type: cell-based, human; conditions: serum-starved HEK293 cells, 100 μM, 10 or 30 min, vs. Basal
Method: as §3

HEK293 cells = test: Cytotoxicity assay (MTS) on HEK293 cells; assay type: cell-based; conditions: for time dependence of cytotoxicity on HEK293 cells: 1-, 4- and 24-h treatment
Method: as §1, §2

SH-SY5Y cells = test: Cytotoxicity assay (MTS) on SH-SY5Y cells; assay type: cell-based; conditions: 1-, 4- and 24-h treatment
Method: as §1, §2

phospho-AMPK (Thr172) = test: Intracellular signalling by Western blot: phospho-AMPK; assay type: cell-based, human; conditions: serum-starved HEK293 cells, 100 μM, 10 or 30 min, vs. Basal
Method: as §3

phospho-Akt (Ser473) = test: Intracellular signalling by Western blot: phospho-Akt; assay type: cell-based, human; conditions: serum-starved HEK293 cells, 100 μM, 10 or 30 min, vs. Basal
Method: as §3

phospho-ACC (Ser79) = test: Intracellular signalling by Western blot: phospho-ACC; assay type: cell-based, human; conditions: serum-starved HEK293 cells, 100 μM, 10 or 30 min, vs. Basal
Method: as §3

HIF-1α = test: Intracellular signalling by Western blot: HIF-1α abundance; assay type: cell-based, human; conditions: serum-starved HEK293 cells, 100 μM, 10 or 30 min, vs. Basal
Method: as §3

AChE [5] = conditions: ref [47]; cited from earlier work
AChE [6] = conditions: ratio of literature Ki values from [47], [48],[49]
BChE = conditions: cited from earlier work
[7] = human, HEK293 cells, MTS assay, 6.25–800 µM, mean of at least three experiments with standard error

human AChE, sequence (P22303 other isoform, or with tags, fused parts or gaps): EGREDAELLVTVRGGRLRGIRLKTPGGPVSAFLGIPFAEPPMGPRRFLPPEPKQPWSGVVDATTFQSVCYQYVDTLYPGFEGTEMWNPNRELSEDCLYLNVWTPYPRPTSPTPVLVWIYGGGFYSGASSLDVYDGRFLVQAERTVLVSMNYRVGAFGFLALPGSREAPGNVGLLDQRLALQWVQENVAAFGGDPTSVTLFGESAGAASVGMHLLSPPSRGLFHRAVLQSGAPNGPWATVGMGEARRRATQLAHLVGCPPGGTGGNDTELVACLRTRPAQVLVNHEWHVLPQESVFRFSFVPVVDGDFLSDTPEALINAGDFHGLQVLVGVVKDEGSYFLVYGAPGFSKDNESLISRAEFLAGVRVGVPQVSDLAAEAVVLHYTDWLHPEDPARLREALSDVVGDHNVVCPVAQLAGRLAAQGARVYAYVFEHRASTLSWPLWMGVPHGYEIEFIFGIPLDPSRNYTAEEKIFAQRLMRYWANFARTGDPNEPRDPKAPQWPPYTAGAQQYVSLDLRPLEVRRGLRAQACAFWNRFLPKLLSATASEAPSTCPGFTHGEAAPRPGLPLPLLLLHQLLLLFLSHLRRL
human BChE, sequence (P06276 29-602): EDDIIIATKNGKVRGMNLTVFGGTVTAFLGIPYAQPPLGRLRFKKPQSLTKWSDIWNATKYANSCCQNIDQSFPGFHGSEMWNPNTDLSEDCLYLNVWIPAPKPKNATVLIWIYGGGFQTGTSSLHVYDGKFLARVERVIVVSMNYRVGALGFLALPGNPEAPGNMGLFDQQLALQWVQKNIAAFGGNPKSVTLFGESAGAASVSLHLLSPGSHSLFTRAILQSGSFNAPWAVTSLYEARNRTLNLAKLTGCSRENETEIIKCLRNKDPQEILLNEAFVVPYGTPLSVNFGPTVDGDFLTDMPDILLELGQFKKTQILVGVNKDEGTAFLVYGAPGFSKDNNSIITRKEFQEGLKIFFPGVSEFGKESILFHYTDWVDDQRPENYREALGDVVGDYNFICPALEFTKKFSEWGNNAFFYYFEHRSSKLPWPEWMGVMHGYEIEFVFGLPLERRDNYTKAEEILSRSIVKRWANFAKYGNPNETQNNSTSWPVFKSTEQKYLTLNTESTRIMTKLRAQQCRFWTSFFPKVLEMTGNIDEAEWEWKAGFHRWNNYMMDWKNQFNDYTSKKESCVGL

NC(=O)c1ccc[n+](CC(=O)c2ccccc2)c1 [Compound 1]
IC50 [1, 7]: ≤ 800 µM | IC50 [2]: ≥ 800 µM | Ki (human BChE): 232 ± 20 µM | Ki (human AChE): 79 ± 11 µM | Ki (AChE)/Ki (BChE) (human AChE): 0.34

NC(=O)c1ccc[n+](CC(=O)c2ccc(F)cc2)c1 [Compound 2]
IC50 [1, 7]: ≥ 800 µM | IC50 [2]: ≥ 800 µM | Ki (human BChE): 595 ± 73 µM | Ki (human AChE): 85 ± 15 µM | Ki (AChE)/Ki (BChE) (human AChE): 0.14

NC(=O)c1ccc[n+](CC(=O)c2ccc(Cl)cc2)c1 [Compound 3]
phosphorylation of ERK1/2 (Thr202/Tyr204) [3]: tended to transiently increase | phosphorylation of S6RP (Ser235/236) [4]: increased | time dependence of cytotoxicity on HEK293 cells (HEK293 cells): time-dependent mechanism | IC50 [1, 7]: ~85 µM | IC50 [2]: ≤ 800 µM | time dependence of cytotoxicity on SH-SY5Y cells (SH-SY5Y cells): time-dependent mechanism | phosphorylation of AMPK (Thr172) (phospho-AMPK (Thr172)): did not respond | Ki (human BChE): 224 ± 23 µM | phosphorylation of Akt (Ser473) (phospho-Akt (Ser473)): suppressing | phosphorylation of ACC (Ser79) (phospho-ACC (Ser79)): did not respond | abundance of HIF-1α (HIF-1α): not statistically significant | Ki (human AChE): 33 ± 5 µM | Ki (AChE)/Ki (BChE) (human AChE): 0.15

NC(=O)c1ccc[n+](CC(=O)c2ccc(Br)cc2)c1 [Compound 4]
phosphorylation of ERK1/2 (Thr202/Tyr204) [3]: tended to transiently increase | phosphorylation of S6RP (Ser235/236) [4]: increased | time dependence of cytotoxicity on HEK293 cells (HEK293 cells): time-dependent mechanism | IC50 (HEK293 cells; HEK293 cells, MTS assay, 6.25–800 µM, mean of at least three experiments with standard error): 83 ± 1 µM | IC50 [1, 7]: ~85 µM | IC50 [2]: 501 ± 2 µM | time dependence of cytotoxicity on SH-SY5Y cells (SH-SY5Y cells): time-dependent mechanism | phosphorylation of AMPK (Thr172) (phospho-AMPK (Thr172)): did not respond | Ki (human BChE): 47 ± 15 µM | phosphorylation of Akt (Ser473) (phospho-Akt (Ser473)): suppressing | phosphorylation of ACC (Ser79) (phospho-ACC (Ser79)): did not respond | abundance of HIF-1α (HIF-1α): increased | Ki (human AChE): 11 ± 3 µM | Ki (AChE)/Ki (BChE) (human AChE): 0.23

NC(=O)c1ccc[n+](CC(=O)c2ccc([N+](=O)[O-])cc2)c1 [Compound 5]
phosphorylation of ERK1/2 (Thr202/Tyr204) [3]: reached statistical significance; also recorded: marked increase | phosphorylation of S6RP (Ser235/236) [4]: decreased | time dependence of cytotoxicity on HEK293 cells (HEK293 cells): time-dependent mechanism | IC50 [1, 7]: 417 ± 1 µM | IC50 [2]: 214 ± 5 µM | time dependence of cytotoxicity on SH-SY5Y cells (SH-SY5Y cells): time-dependent mechanism | phosphorylation of AMPK (Thr172) (phospho-AMPK (Thr172)): markedly increased | Ki (human BChE): 145 ± 24 µM | phosphorylation of Akt (Ser473) (phospho-Akt (Ser473)): markedly pronounced | phosphorylation of ACC (Ser79) (phospho-ACC (Ser79)): markedly increased | abundance of HIF-1α (HIF-1α): unaltered | Ki (human AChE): 39 ± 5 µM | Ki (AChE)/Ki (BChE) (human AChE): 0.27

Cc1ccc(C(=O)C[n+]2cccc(C(N)=O)c2)cc1 [Compound 6]
IC50 [1, 7]: ≤ 800 µM | IC50 [2]: ≥ 800 µM | Ki (human BChE): 242 ± 22 µM | Ki (human AChE): 3 ± 1 µM | preference for binding to AChE over BChE (human AChE; selectivity from Ki values): up to 80 times | Ki (AChE)/Ki (BChE) (human AChE): 0.01

COc1ccc(C(=O)C[n+]2cccc(C(N)=O)c2)cc1 [Compound 7]
IC50 [1, 7]: ≥ 800 µM | IC50 [2]: ≥ 800 µM | Ki (human BChE): 216 ± 34 µM | Ki (human AChE): 19 ± 2 µM | Ki (AChE)/Ki (BChE) (human AChE): 0.08

NC(=O)c1ccc[n+](CC(=O)c2ccc(-c3ccccc3)cc2)c1.[Br-] [Compound 8, 1-(4′-phenylphenacyl)-3-carbamoylpyridinium bromide]
phosphorylation of ERK1/2 (Thr202/Tyr204) [3]: reached statistical significance; also recorded: marked increase | phosphorylation of S6RP (Ser235/236) [4]: unaltered | IC50 ([1]; human; HEK293 cells, MTS assay, 6.25–800 µM, mean of at least three experiments with standard error): 155 ± 1 µM | IC50 [2]: 257 ± 1 µM | time dependence of cytotoxicity on SH-SY5Y cells (SH-SY5Y cells): time-dependent mechanism | phosphorylation of AMPK (Thr172) (phospho-AMPK (Thr172)): not significantly altered | phosphorylation of Akt (Ser473) (phospho-Akt (Ser473)): markedly pronounced | phosphorylation of ACC (Ser79) (phospho-ACC (Ser79)): increased phosphorylation | abundance of HIF-1α (HIF-1α): increased | Ki (human AChE): 4 ± 0.2 µM | Ki (AChE)/Ki (BChE) (human AChE): 0.50

COc1ccccc1C(=O)C[n+]1cccc(C(N)=O)c1 [Compound 9]
IC50 [1, 7]: ≥ 800 µM | IC50 [2]: ≥ 800 µM | Ki (human BChE): 180 ± 18 µM | Ki (human AChE): 26 ± 4 µM | Ki (AChE)/Ki (BChE) (human AChE): 0.14

CCN(CC)C(C)CN1c2ccccc2Sc2ccccc21 (stereo not drawn) [Ethopropazine]
Ki (AChE [5]): 161 µM | Ki (AChE)/Ki (BChE) (AChE [6]): 1010 | Ki (BChE; ref [47]): 0.16 µM
